Data reported in patent US9102675B2, “3-Cyanoaryl-1H-pyrrolo[2,3-B] pyridine derivatives” (MERCK PATENT GMBH, priority 2011, dated 2015).

Molecular target: T1, IKKε (Homo sapiens, UniProt Q14164)
T1 sequence (Q14164 1-716): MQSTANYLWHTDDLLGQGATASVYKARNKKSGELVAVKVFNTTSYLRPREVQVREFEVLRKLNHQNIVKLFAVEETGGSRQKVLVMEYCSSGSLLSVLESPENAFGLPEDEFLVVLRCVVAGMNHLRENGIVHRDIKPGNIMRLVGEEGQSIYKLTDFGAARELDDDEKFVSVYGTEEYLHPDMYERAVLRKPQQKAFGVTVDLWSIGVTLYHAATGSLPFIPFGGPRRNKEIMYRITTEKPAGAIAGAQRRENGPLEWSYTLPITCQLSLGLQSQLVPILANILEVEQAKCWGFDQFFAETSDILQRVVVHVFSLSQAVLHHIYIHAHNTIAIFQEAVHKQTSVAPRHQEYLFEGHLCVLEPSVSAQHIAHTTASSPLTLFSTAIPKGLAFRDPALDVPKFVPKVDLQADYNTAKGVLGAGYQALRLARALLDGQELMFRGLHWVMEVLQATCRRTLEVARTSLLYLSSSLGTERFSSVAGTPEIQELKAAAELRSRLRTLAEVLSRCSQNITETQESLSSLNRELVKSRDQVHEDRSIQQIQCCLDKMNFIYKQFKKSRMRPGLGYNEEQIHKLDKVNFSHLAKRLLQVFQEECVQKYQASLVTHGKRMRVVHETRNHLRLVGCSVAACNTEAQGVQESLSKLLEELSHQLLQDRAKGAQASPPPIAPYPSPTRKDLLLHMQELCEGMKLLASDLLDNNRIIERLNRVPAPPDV
Assay: IKKε kinase assay (384-well flashplate assay)
Assay type: biochemical
Conditions: 10 μM ATP, 1 nM IKKε; read-out: IKKε enzyme assay IC50
Experimental: Test for the Inhibition of IKKε
IKKε—Kinase Assay (IKKepsilon)
The kinase assay is performed as 384-well flashplate assay (for example for Topcount measurement).
1 nM IKKε, 800 nM biotinylated IκKα(19-42) peptide (Biotin-C6-C6-[…]) and 10 μM ATP (spiked with 0.3 μCi of ^33P-ATP/well) are incubated at 30° C. for 2 hours in a total volume of 50 μl (10 mM MOPS, 10 mM Mg acetate, 0.1 mM EGTA, 1 mM dithiothreitol, 0.02% of Brij35, 0.1% of BSA, 0.1% of BioStab, pH 7.5) with or without test compound. The reaction is stopped using 25 μl of 200 mM EDTA. After 30 min at room temperature, the liquid is removed, and each well is washed three times with 100 μl of 0.9% sodium chloride solution. Non-specific reaction is determined in the presence of 3 μM MSC2119074 (BX-795). The radioactivity is measured using a Topcount (Perkin Elmer). The results (for example IC50 values) are calculated using program tools provided by the IT Department (for example AssayExplorer, Symyx).

| IC50 [nM] | SMILES |
| --- | --- |
| < 300 | N#Cc1cc(-c2c[nH]c3ncccc23)ccc1OC1CCOCC1 [Compound A1, 5-(1H-pyrrolo[2,3-b]pyridin-3-yl)-2-tetrahydropyran-4-yloxybenzonitrile] |
| < 300 | Cn1cc(-c2cnc3[nH]cc(-c4ccc(OC5CCOCC5)c(C#N)c4)c3c2)cn1 [Compound A4, 5-[5-(1-methylpyrazol-4-yl)-1H-pyrrolo[2,3-b]pyridin-3-yl]-2-tetrahydropyran-4-yloxybenzonitrile] |
| < 300 | N#Cc1cc(-c2c[nH]c3ncc(-c4cnn(CCN5CCOCC5)c4)cc23)ccc1OC1CCOCC1 [Compound A7, 5-[5-[1-(2-morpholinoethyl)pyrazol-4-yl]-1H-pyrrolo[2,3-b]pyridin-3-yl]-2-tetrahydropyran-4-yloxybenzonitrile] |
| < 300 | N#Cc1cc(-c2c[nH]c3ncc(-c4ccc(N5CCOCC5)cc4)cc23)ccc1OC1CCOCC1 [Compound A8, 5-[5-(4-morpholinophenyl)-1H-pyrrolo[2,3-b]pyridin-3-yl]-2-tetrahydropyran-4-yloxybenzonitrile] |
| < 300 | N#Cc1cc(-c2c[nH]c3ncc(-c4cnn(CCN5CCCC5)c4)cc23)ccc1OC1CCOCC1 [Compound A9, 5-[5-[1-(2-pyrrolidin-1-ylethyl)pyrazol-4-yl]-1H-pyrrolo[2,3-b]pyridin-3-yl]-2-tetrahydropyran-4-yloxybenzonitrile] |
| < 300 | COCCn1cc(-c2cnc3[nH]cc(-c4ccc(OC5CCOCC5)c(C#N)c4)c3c2)cn1 [Compound A10, 5-[5-[1-(2-methoxyethyl)pyrazol-4-yl]-1H-pyrrolo[2,3-b]pyridin-3-yl]-2-tetrahydropyran-4-yloxybenzonitrile] |
| < 300 | N#Cc1cc(-c2c[nH]c3ncc(-c4cnn(C5CCNCC5)c4)cc23)ccc1OC1CCOCC1 [Compound A12, 5-[5-(1-piperidin-4-yl-1H-pyrazol-4-yl)-1H-pyrrolo[2,3-b]pyridin-3-yl]-2-(tetrahydropyran-4-yloxy)benzonitrile] |
| < 300 | CN1CCC(Oc2ccc(-c3c[nH]c4ncc(-c5cnn(C)c5)cc34)cc2C#N)CC1 [Compound A13, 2-(1-methylpiperidin-4-yloxy)-5-[5-(1-methyl-1H-pyrazol-4-yl)-1H-pyrrolo[2,3-b]pyridin-3-yl]benzonitrile] |
| < 300 | N#Cc1cc(-c2c[nH]c3ncc(-c4cnn(CCO)c4)cc23)ccc1OC1CCOCC1 [Compound A15, 5-[5-[1-(2-hydroxyethyl)pyrazol-4-yl]-1H-pyrrolo[2,3-b]pyridin-3-yl]-2-tetrahydropyran-4-yloxybenzonitrile] |
| < 300 | CN1CCC(n2cc(-c3cnc4[nH]cc(-c5ccc(OC6CCOCC6)c(C#N)c5)c4c3)cn2)CC1 [Compound A16, 5-[5-[1-(1-methyl-4-piperidyl)pyrazol-4-yl]-1H-pyrrolo[2,3-b]pyridin-3-yl]-2-tetrahydropyran-4-yloxybenzonitrile] |
| 300 to 3000 | CN1CCN(c2cnc3[nH]cc(-c4ccc(OC5CCOCC5)c(C#N)c4)c3c2)CC1 [Compound A17, 5-[5-(4-methylpiperazin-1-yl)-1H-pyrrolo[2,3-b]pyridin-3-yl]-2-tetrahydropyran-4-yloxybenzonitrile] |
| < 300 | N#Cc1cc(-c2c[nH]c3ncc(-c4cnn(C5CCNCC5)c4)cc23)cnc1OC1CCOCC1 [Compound A18, 5-[5-[1-(4-piperidyl)pyrazol-4-yl]-1H-pyrrolo[2,3-b]pyridin-3-yl]-2-tetrahydropyran-4-yloxypyridine-3-carbonitrile] |
| < 300 | CN1CCC(n2cc(-c3cnc4[nH]cc(-c5ccc(OC6CCOCC6)c(C#N)c5)c4c3)cn2)CC1 [Compound A20, 5-[5-[1-(1-methyl-4-piperidyl)pyrazol-4-yl]-1H-pyrrolo[2,3-b]pyridin-3-yl]-2-tetrahydropyran-4-yloxybenzonitrile] |
| < 300 | N#Cc1cc(-c2c[nH]c3ncc(OCCN4CCOCC4)cc23)ccc1OC1CCOCC1 [Compound A21, 5-[5-(2-morpholinoethoxy)-1H-pyrrolo[2,3-b]pyridin-3-yl]-2-tetrahydropyran-4-yloxybenzonitrile] |
| < 300 | N#Cc1cc(-c2c[nH]c3ncc(-c4cn(C5CCNCC5)nn4)cc23)ccc1OC1CCOCC1 [Compound A22, 5-[5-[1-(4-piperidyl)triazol-4-yl]-1H-pyrrolo[2,3-b]pyridin-3-yl]-2-tetrahydropyran-4-yloxybenzonitrile] |
| < 300 | CN1CCC(n2cc(-c3cnc4[nH]cc(-c5ccc(OC6CCOCC6)c(C#N)c5)c4c3)nn2)CC1 [Compound A23, 5-[5-[1-(1-methyl-4-piperidyl)triazol-4-yl]-1H-pyrrolo[2,3-b]pyridin-3-yl]-2-tetrahydropyran-4-yloxybenzonitrile] |
| < 300 | CC1(COc2ccc(-c3c[nH]c4ncc(-c5cnn(C6CCNCC6)c5)cc34)cc2C#N)COC1 [Compound A24, 2-[(3-Methyloxetan-3-yl)methoxy]-5-[5-[1-(4-piperidyl)pyrazol-4-yl]-1H-pyrrolo[2,3-b]pyridin-3-yl]-benzonitrile] |
| < 300 | N#Cc1cc(-c2c[nH]c3ncc(-c4cnn(C5COC5)c4)cc23)ccc1OC1CCOCC1 [Compound A26, 5-[5-[1-(Oxetan-3-yl)pyrazol-4-yl]-1H-pyrrolo[2,3-b]-pyridin-3-yl]-2-tetrahydropyran-4-yloxybenzonitrile] |
| < 300 | N#Cc1cc(-c2c[nH]c3ncc(-c4cn(CCN5CCCC5)nn4)cc23)ccc1OC1CCOCC1 [Compound A27, 5-[5-[1-(2-Pyrrolidin-1-ylethyl)triazol-4-yl]-1H-pyrrolo-[2,3-b]pyridin-3-yl]-2-tetrahydropyran-4-yloxybenzo-nitrile] |
| < 300 | Cn1cc(-c2cnc3[nH]cc(-c4cnc(OC5CCOCC5)c(C#N)c4)c3c2)cn1 [Compound A30, 5-[5-(1-Methylpyrazol-4-yl)-1H-pyrrolo[2,3-b]pyridin-3-yl]-2-tetrahydropyran-4-yloxypyridine-3-carbonitrile] |
| < 300 | Cn1cc(-c2cnc3[nH]cc(-c4ccc(OC5COC5)c(C#N)c4)c3c2)cn1 [Compound A31, 5-[5-(1-methyl-1H-pyrazol-4-yl)-1H-pyrrolo[2,3-b]pyridin-3-yl]-2-(oxetan-3-yloxy)benzonitrile] |
| < 300 | Cn1cc(-c2cnc3[nH]cc(-c4ccc(OCC5(C)COC5)c(C#N)c4)c3c2)cn1 [Compound A32, 2-(3-methyloxetan-3-ylmethoxy)-5-[5-(1-methyl-1H-pyrazol-4-yl)-1H-pyrrolo[2,3-b]pyridin-3-yl]benzonitrile] |
| < 300 | N#Cc1cc(-c2c[nH]c3ncc(-c4cnn(CCN5CCCC5)c4)cc23)cnc1OC1CCOCC1 [Compound A33, 5-{5-[1-(2-Pyrrolidin-1-ylethyl)-1H-pyrazol-4-yl]-1H-pyrrolo[2,3-b]pyridin-3-yl}-2-(tetrahydropyran-4-yl-oxy)nicotinonitrile] |
| < 300 | N#Cc1cc(-c2c[nH]c3ncc(-c4cnn(C5COC5)c4)cc23)ccc1OC1COC1 [Compound A34, 2-(oxetan-3-yloxy)-5-[5-(1-oxetan-3-yl-1H-pyrazol-4-yl)-1H-pyrrolo-[2,3-b]pyridin-3-yl]benzonitrile] |
| < 300 | CC1(COc2ccc(-c3c[nH]c4ncc(-c5cnn(C6COC6)c5)cc34)cc2C#N)COC1 [Compound A35, 2-(3-methyloxetan-3-ylmethoxy)-5-[5-(1-oxetan-3-yl-1H-pyrazol-4-yl)-1H-pyrrolo[2,3-b]-pyridin-3-yl]benzonitrile] |
| < 300 | CC1(COc2ccc(-c3c[nH]c4ncc(-c5cn[nH]c5)cc34)cc2C#N)COC1 [Compound A36, 2-(3-methyloxetan-3-ylmethoxy)-5-[5-(1H-pyrazol-4-yl)-1H-pyrrolo[2,3-b]pyridin-3-yl]benzonitrile] |
| < 300 | N#Cc1cc(-c2c[nH]c3ncc(-c4cnn(C5COC5)c4)cc23)cnc1OC1CCOCC1 [Compound A37, 5-[5-(1-Oxetan-3-yl-1H-pyrazol-4-yl)-1H-pyrrolo-[2,3-b]pyridin-3-yl]-2-(tetrahydropyran-4-yloxy)-nicotinonitrile] |
| < 300 | COCCn1cc(-c2cnc3[nH]cc(-c4cnc(OC5CCOCC5)c(C#N)c4)c3c2)cn1 [Compound A38, 5-{5-[1-(2-Methoxyethyl)-1H-pyrazol-4-yl]-1H-pyrrolo-[2,3-b]pyridin-3-yl}-2-(tetrahydropyran-4-yloxy)-nicotinonitrile] |
